# pIC50: −log10 of the molar value.
# Test system: HCV 1b genotype
# Test: Cell-based luciferase reporter HCV (Ib) RNA replication assay (Huh-ET replicon cells)
# Conditions: Hepatitis C virus, 96 h; HCV 1b genotype replicon, 4 days incubation, luciferase readout
# From the text: Cell-Based Luciferase Reporter HCV (Ib) RNA Replication Assay Cell Culture
# Replicon cell lines Huh-5.2 are derived from the Huh-7 hepatocarcinoma cell line are maintained in culture as generally described in Krieger, N; Lohmann, V; Bartenschlager, R. Enhancement of hepatitis C virus RNA replication by cell culture-adaptive mutations. J. Virol. 2001, 75, 4614-4624. The Huh-5.2 cells contain the highly cell culture-adapted replicon I389 Luc-ubi-neo/NS3-375.1 construct that carries, in addition to the neomycin gene, an integrated copy to the firefly luciferase gene (Krieger, N; Lohmann, V; Bartenschlager, R. Enhancement of hepatitis C virus RNA replication by cell culture-adaptive mutations. J. Virol. 2001, 75, 4614-4624). This cell line allows measurement of HCV RNA replication and translation by measuring luciferase activity. It has been previously shown that the luciferase activity tightly follows the replicon RNA level in these cells (Krieger, N; Lohmann, V; Bartenschlager, R. Enhancement of hepatitis C virus RNA replication by cell culture-adaptive mutations. J. Virol. 2001, 75, 4614-4624). The Huh-ET cell line has the same features as those mentioned for Huh-5.2 cell line, except that ET cells are more robust and contain an adaptative mutation in the HCV NS4B gene instead of NS5A. Both cell lines are maintained in cultures at a sub-confluent level (<85%) as the level of replicon RNA is highest in actively proliferating cells. The culture media used for cell passaging consist of DMEM (Gibco BRL Laboratories, Mississauga, ON, Canada) supplemented with 10% foetal bovine serum with 1% penicilin/streptomycin, 1% glutamine, 1% sodium pyruvate, 1% non-essential amino acids, and 180 μg/ml of G418 final concentration. Cells are incubated at 37° C., in an atmosphere of 5% CO2 and passaged twice a week to maintain sub-confluence.
# Approximately 3000 viable Huh-ET cells (100 μl) are plated per well in a white opaque 96-well microtiter plate. The cell culture media used for the assay is the same as described above except that it contains no G418 and no phenol red. After an incubation period of 3-4 hours at 37° C. in a 5% CO2 incubator, compounds (100 μl) are added at various concentrations. Cells are then further incubated for 4 days at 37° C. in a 5% CO2 incubator. Thereafter, the culture media is removed and cells are lysed by the addition of 95 μL of the luciferase buffer (luciferin substrate in buffered detergent). Cell lysates are incubated at room temperature and protected from direct light for at least 10 minutes. Plates are read for luciferase counts using a luminometer (Wallac MicroBeta Trilux, Perkin Elmer™, MA, USA).
# The 50% inhibitory concentrations (IC50s) for inhibitory effect are determined from dose response curves using eleven concentrations per compound in duplicate. Curves are fitted to data points using nonlinear regression analysis, and IC50s are interpolated from the resulting curve using GraphPad Prism software, version 2.0 (GraphPad Software Inc., San Diego, Calif., USA).
# EC50 ranges are presented in micromolar as follows: μM+++<=0.005<++<=5.0<+.
row,SMILES,pIC50
1,COC(=O)N[C@H](C(=O)N1CCC[C@H]1c1nc(C#Cc2ccc(C#Cc3c[nH]c([C@@H]4CCCN4C(=O)[C@@H](NC(=O)OC)C(C)C)n3)c3ocnc23)c[nH]1)C(C)C [Compound 13],≥ 8.30
2,COC(=O)N[C@H](C(=O)N1C[C@@H](C)C[C@H]1c1nc(C)c(C#Cc2ccc3cc(C#Cc4[nH]c([C@@H]5C[C@H](C)CN5C(=O)[C@@H](NC(=O)OC)C(C)C)nc4C)ccc3c2)[nH]1)C(C)C [Compound 37],≥ 8.30
3,COC(=O)N[C@H](C(=O)N1C[C@@H](C)C[C@H]1c1nc(C(F)(F)F)c(C#Cc2ccc(C#Cc3[nH]c([C@@H]4C[C@H](C)CN4C(=O)[C@@H](NC(=O)OC)C(C)C)nc3C(F)(F)F)cc2)[nH]1)C(C)C [Compound 48],≥ 8.30
4,COC(=O)N[C@H](C(=O)N1C[C@@H](C)C[C@H]1c1nc(C#Cc2ccc3cc(C#Cc4c[nH]c([C@@H]5C[C@H](C)CN5C(=O)[C@@H](NC(=O)OC)C(C)C)n4)ccc3c2)c[nH]1)C(C)C [Compound 6],≥ 8.30
5,COC(=O)N[C@H](C(=O)N1C[C@@H](C)C[C@H]1c1ncc(-c2ccc(-c3[nH]c([C@@H]4C[C@H](C)CN4C(=O)[C@@H](NC(=O)OC)C(C)C)nc3-c3cc4sccc4s3)cc2)[nH]1)C(C)C [Compound 58],≥ 8.30
6,[2H]C([2H])([2H])C([2H])(C([2H])([2H])[2H])[C@@]([2H])(NC(=O)OC)C(=O)N1C[C@@H](C)C[C@H]1c1ncc(C#Cc2ccc(C#Cc3cnc([C@@H]4C[C@H](C)CN4C(=O)[C@@H](NC(=O)OC)C(C)C)[nH]3)cc2)[nH]1 [Compound 44],≥ 8.30
7,COC(=O)N[C@H](C(=O)N1CCC[C@H]1c1ncc(C#Cc2ccc(C#Cc3cnc([C@@H]4CCCN4C(=O)[C@@H](NC(=O)OC)C(C)C)[nH]3)s2)[nH]1)C(C)C [Compound 3],≥ 8.30
8,COC(=O)N[C@H](C(=O)N1C[C@H](C)C[C@H]1c1nc(C)c(C#Cc2ccc(C#Cc3[nH]c([C@@H]4C[C@@H](C)CN4C(=O)[C@@H](NC(=O)OC)C(C)C)nc3C)cc2)[nH]1)C(C)C [Compound 28],≥ 8.30
9,COC(=O)N[C@H](C(=O)N1C[C@H](C)C[C@H]1c1ncc(C#Cc2ccc(C#Cc3cnc([C@@H]4C[C@H](C)CN4C(=O)[C@@H](NC(=O)OC)C(C)C)[nH]3)cc2)[nH]1)C(C)C [Compound 38],≥ 8.30
10,COC(=O)N[C@H](C(=O)N1CCC[C@H]1c1nc(C#Cc2cc3sc(C#Cc4c[nH]c([C@@H]5CCCN5C(=O)[C@@H](NC(=O)OC)C(C)C)n4)cc3s2)c[nH]1)C(C)C [Compound 14],≥ 8.30
11,COC(=O)N[C@H](C(=O)N1C[C@@H](C)C[C@H]1c1ncc(C#Cc2cc(C)c(C#Cc3cnc([C@@H]4C[C@H](C)CN4C(=O)[C@@H](NC(=O)OC)C(C)C)[nH]3)cc2C)[nH]1)C(C)C [Compound 8],≥ 8.30
12,COC(=O)N[C@H](C(=O)N1C[C@@H](C)C[C@H]1c1ncc(C#Cc2ccc(C#Cc3cnc([C@@H]4C[C@H](C)CN4C(=O)[C@H](NC(=O)OC)C(C)C)[nH]3)cc2)[nH]1)C(C)C [Compound 33],≥ 8.30
13,COC(=O)N[C@H](C(=O)N[C@H](C(=O)N1C[C@@H](C)C[C@H]1c1ncc(C#Cc2ccc(C#Cc3cnc([C@@H]4C[C@H](C)CN4C(=O)[C@@H](NC(=O)OC)C(C)C)[nH]3)cc2)[nH]1)C(C)C)C(C)C [Compound 46],≥ 8.30
14,C[C@H]1C[C@@H](c2ncc(-c3ccc(-c4ccc(-c5cnc([C@@H]6C[C@H](C)CN6C(=O)OC(C)(C)C)[nH]5)s4)cc3)[nH]2)N(C(=O)OC(C)(C)C)C1 [Compound 65],5.30 to 8.30
15,COC(=O)N[C@H](C(=O)N1C[C@@H](C)C[C@H]1c1nc(C#Cc2ccc(C#Cc3c[nH]c([C@@H]4C[C@H](C)CN4C(=O)[C@@H](NC(=O)OC)C(C)C)n3)s2)c[nH]1)C(C)C [Compound 60],≥ 8.30
16,COC(=O)N[C@H](C(=O)N1C[C@@H](C)C[C@H]1c1nc(C#Cc2ccc(C#Cc3c[nH]c([C@@H]4C[C@H](C)CN4C(=O)[C@@H](NC(=O)OC)C(C)C)n3)c(Cl)c2)c[nH]1)C(C)C [Compound 63],≥ 8.30

row,SMILES,pIC50
1,COC(=O)N[C@H](C(=O)N1CCC[C@H]1c1nc(C)c(C#Cc2ccc(C#Cc3[nH]c([C@@H]4CCCN4C(=O)[C@@H](NC(=O)OC)C(C)C)nc3C)cc2)[nH]1)C(C)C [Compound 19],≥ 8.30
2,COC(=O)N[C@H](C(=O)N1C[C@@H](C)C[C@H]1c1nc(C#Cc2ccc(C#Cc3c[nH]c([C@@H]4C[C@H](C)CN4C(=O)[C@@H](NC(=O)OC)C(C)C)n3)c(C)c2)c[nH]1)C(C)C [Compound 16],≥ 8.30
3,COC(=O)N[C@H](C(=O)N1C[C@@H](C)C[C@@H]1c1ncc(C#Cc2ccc(C#Cc3cnc([C@@H]4C[C@@H](C)CN4C(=O)[C@@H](NC(=O)OC)C(C)C)[nH]3)cc2)[nH]1)C(C)C [Compound 27],5.30 to 8.30
4,C[C@@H]1CN[C@H](c2ncc(C#Cc3ccc(C#Cc4cnc([C@@H]5C[C@H](C)CN5)[nH]4)cc3)[nH]2)C1 [Compound 24],5.30 to 8.30
5,COC(=O)N(C)[C@H](C(=O)N1C[C@@H](C)C[C@H]1c1ncc(C#Cc2ccc(C#Cc3cnc([C@@H]4C[C@H](C)CN4C(=O)[C@H](C(C)C)N(C)C(=O)OC)[nH]3)cc2)[nH]1)C(C)C [Compound 11],≥ 8.30
6,COC(=O)N[C@H](C(=O)N1C[C@@H](C)C[C@H]1c1ncc(C#Cc2ccc(C#Cc3[nH]c([C@@H]4C[C@H](C)CN4C(=O)[C@@H](NC(=O)OC)C(C)C)nc3I)cc2)[nH]1)C(C)C [Compound 20],≥ 8.30
7,"COC(=O)N[C@H](C(=O)N1CCC[C@H]1c1nc(-c2cc3sc(-c4c[nH]c([C@@H]5CCCN5C(=O)[C@@H](NC(=O)OC)C(C)C)n4)cc3s2)c[nH]1)C(C)C [Example 25, Methyl N-[(1S)-1-[(2S)-2-[4-[2-[2-[(2S)-1-[(2S)-2-(methoxycarbonylamino)-3-methyl-butanoyl]pyrrolidin-2-yl]-1H-imidazol-4-yl]thieno[3,2-b]thiophen-5-yl]-1H-imidazol-2-yl]pyrrolidine-1-carbonyl]-2-methyl-propyl]carbamate]",≥ 8.30
8,COC(=O)N[C@H](C(=O)N1C[C@@H](C)C[C@H]1c1nc(I)c(C#Cc2ccc(C#Cc3[nH]c([C@@H]4C[C@H](C)CN4C(=O)[C@@H](NC(=O)OC)C(C)C)nc3I)cc2)[nH]1)C(C)C [Compound 21],≥ 8.30
9,CC[C@H]1C[C@@H](c2ncc(C#Cc3ccc(C#Cc4cnc([C@@H]5C[C@H](CC)CN5C(=O)[C@@H](NC(=O)OC)C(C)C)[nH]4)cc3)[nH]2)N(C(=O)[C@@H](NC(=O)OC)C(C)C)C1 [Compound 41],≥ 8.30
10,COC(=O)N[C@H](C(=O)N1C[C@@H](C)C[C@H]1c1ncc(C#Cc2ccc(C#Cc3cnc([C@@H]4C[C@H](CO)CN4C(=O)[C@@H](NC(=O)OC)C(C)C)[nH]3)cc2)[nH]1)C(C)C [Compound 64],≥ 8.30
11,COC(=O)N[C@H](C(=O)N1C[C@@H](C)C[C@H]1c1nc(C)c(-c2cc3sc(-c4[nH]c([C@@H]5C[C@H](C)CN5C(=O)[C@@H](NC(=O)OC)C(C)C)nc4C)cc3s2)[nH]1)C(C)C [Compound 47],≥ 8.30
12,COC(=O)N[C@H](C(=O)N1C[C@@H](C)C[C@H]1c1nc(C#Cc2ccc3sc(C#Cc4c[nH]c([C@@H]5C[C@H](C)CN5C(=O)[C@@H](NC(=O)OC)C(C)C)n4)cc3c2)c[nH]1)C(C)C [Compound 61],≥ 8.30
13,COC(=O)N[C@H](C(=O)N1C[C@@H](C)C[C@H]1c1nc(C#Cc2ccc(C#Cc3c[nH]c([C@@H]4C[C@H](C)CN4C(=O)[C@@H](NC(=O)OC)C(C)C)n3)c(C(=O)OC)c2)c[nH]1)C(C)C [Compound 57],≥ 8.30
14,COC(=O)N[C@H](C(=O)N1C[C@H](C)C[C@H]1c1nc(C#Cc2ccc(C#Cc3c[nH]c([C@@H]4C[C@@H](C)CN4C(=O)[C@@H](NC(=O)OC)C(C)C)n3)cc2)c[nH]1)C(C)C [Compound 9],≥ 8.30
15,COC(=O)N[C@H](C(=O)N1C[C@@H](C)C[C@H]1c1nc(C)c(C#Cc2ccc(C#Cc3[nH]c([C@@H]4C[C@H](C)CN4C(=O)[C@@H](NC(=O)OC)C(C)C)nc3C)cc2)[nH]1)C(C)C [Compound 18],≥ 8.30
16,COC(=O)N[C@H](C(=O)N1C[C@@H](C)C[C@H]1c1ncc(C#Cc2ccc(C#Cc3cnc([C@@H]4C[C@H](C)CN4C(=O)[C@@H](NC(=O)OC)C(C)C)[nH]3)c(F)c2)[nH]1)C(C)C [Compound 36],≥ 8.30
